Laboratory results reported in patent publication US7105501B2, “Compositions with vascular damaging activity” (Angiogene Pharmaceuticals Ltd., priority 2000, dated 2006).

Key:
CaNT tumour vasculature = assay: Activity against tumour vasculature measured by fluorescent dye (Hoechst 33342 functional vascular volume); assay type: in vivo; settings: CaNT tumour-bearing mice, 24 hours after drug treatment
Method: Activity Against Tumour Vasculature Measured by Fluorescent Dye.
Tumour functional vascular volume in CaNT tumour-bearing mice was measured using the fluorescent dye Hoechst 33342 according to the method of Smith et al (Brit J Cancer 57, 247-253, 1988). At least three animals were used in control and treated groups. The fluorescent dye was dissolved in saline at 6.25 mg/ml and injected intravenously at 10 mg/kg 24 hours after drug treatment. One minute later, animals were killed and tumours excised and frozen; 10 μm sections were cut at 3 different levels and observed under UV illumination using an Olympus microscope equipped with epifluorescence. Blood vessels were identified by their fluorescent outlines and vascular volume was quantified using a point scoring system based on that described by Chalkley, (J Natl Cancer Inst, 4, 47-53, 1943). All estimates were based on counting a minimum of 100 fields from sections cut at the 3 different levels. The salts of the invention were more efficacious than their dihydrogen phosphate parent compounds.

CaNT tumours = assay: Induction of tumour necrosis, CaNT tumours; assay type: in vivo, Mice; settings: tumours excised after 24 h, mean score 1-10, control 2.0
Method: (§1) Induction of Tumour Necrosis
(§2) Mice bearing either CaNT or SaS tumours were treated with the test compound and tumours excised after 24 h, fixed in formalin, embedded in paraffin, sectioned and stained with haematoxylin and eosin. Sections were scored based on the estimated area of necrosis as follows:
(§3) Control tumours had mean scores of 2.0 (CaNT) and 1.0 (SaS). The salts of the invention were more efficacious than their dihydrogen phosphate parent compounds.

SaS tumours = assay: Induction of tumour necrosis, SaS tumours; assay type: in vivo, Mice; settings: tumours excised after 24 h, mean score 1-10, control 1.0
Method: as §1, §2, §3

SMILES	% Reduction in Vascular Volume (CaNT tumour vasculature; dose 100 mg/kg) [%]	Necrosis score (CaNT tumours; dose 100 mg/kg)	Necrosis score (SaS tumours; dose 500 mg/kg)	% Reduction in Vascular Volume (CaNT tumour vasculature; dose 50 mg/kg) [%]	Necrosis score (CaNT tumours; dose 50 mg/kg)	Necrosis score (SaS tumours; dose 100 mg/kg)
COc1cc(/C=C\c2ccc(C)c(OP(=O)(O)O)c2)cc(OC)c1OC [(Z)-2-methyl-5-[2-(3,4-,5-trimethoxyphenyl)ethenyl]phenyl dihydrogen phosphate]	28	5.3	–	–	–	–
COc1ccc(/C=C\c2cc(OC)c(OC)c(OC)c2)cc1OP(=O)(O)O [Combretastatin A4 phosphate, combretastatin A4 phosphate]	26	5.0	1.4	–	–	–
COc1cc(/C=C\c2ccc(C)c(OP(=O)(O)O)c2)cc(OC)c1OC.NC(=N[N+](=O)[O-])NCCCC(N)C(=O)O [Example 2, (Z)-2-methyl-5-[2-(3,4,5-trimethoxyphenyl)ethenyl]phenyl (1-carboxy-4-N′-nitroguanidinobutylammonium) hydrogen phosphate]	–	–	–	42	8.7	7.7
COC(=O)C(N)CCCNC(N)=N[N+](=O)[O-].COc1cc(/C=C\c2ccc(C)c(OP(=O)(O)O)c2)cc(OC)c1OC [Example 5, (Z)-2-methyl-5-[2-(3,4,5-trimethoxyphenyl)ethenyl]phenyl (1-methoxycarbonyl-4-N′-nitroguanidinobutylammonium) hydrogen phosphate]	–	–	–	86	10.0	–
